Measurements: patent publication US9157069B2, “Method of producing pancreatic hormone-producing cells” (Takeda Pharmaceutical Company Limited, priority 2010, dated 2015)
Entries after “also recorded” stand apart in the source; their conditions may differ.

Tests used:
human iPS cells [1] = assay: Endoderm induction of human iPS cells, SOX17 gene expression by quantitative RT-PCR; assay type: cell-based; settings: GSK3 inhibitor (CHIR99021 3 μM or BIO 0.5 μM) with activin A 100 ng/ml, after 2 days in CHIR99021 3 μM; from day 4 of culture
Procedure: To the human iPS cells sedimented in the centrifuge tube, 0.25% trypsin-1 mM EDTA solution (GIBCO) was added, and allowed to dissociate until they form singulated cells. Then, human iPS cells dispersed in a medium were seeded at a density of 15×10^4 cells per one 100 mm dish coated with BD Matrigel (Nippon Becton Dickinson Company, Ltd.), and cultured at 37° C., 5% CO2 for 1 day. The 100 mm dish used was one coated with BD Matrigel diluted 40-fold with serum-free DMEM/F12 medium (Invitrogen), at room temperature for 3 hr or longer. As a medium for dispersion and seeding was a medium for primate ES cell (ReproCELL Inc.) added with 10 μM Y-27632 (Wako Pure Chemical Industries, Ltd.). […]
To examine variation in the expression of endoderm differentiation markers when human iPS cells were cultured, the cells after differentiation induction were recovered over time, and total RNA fraction was purified using RNeasy96 (Qiagen). cDNA was synthesized using PrimeScriptRT reagent kit (Takara Bio Inc.), quantitative RT-PCR was performed, and the gene expression level of a primitive streak marker Brachyury, and an endoderm marker SOX17 was measured. […]
The level of the gene expression of SOX17 when human iPS cells were cultured was measured over time. […]

human iPS cells [2] = assay: Differentiation of human iPS cells into pancreatic hormone-producing cells on BD Matrigel or fibronectin substrate, time-course expression of differentiation markers; assay type: cell-based; settings: substrate for endoderm induction, 100 mm dish coating diluted 40-fold
Procedure: First, human iPS cells maintained in the state of a cell mass were dissociated until they formed singulated cells in the same manner as in Example 1. Then, human iPS cells dispersed in a medium were seeded at a density of 60×10^4 cells per one 100 mm dish coated with fibronectin (Invitrogen), and cultured at 37° C., 5% CO2 for 1 day. The 100 mm dish used was one coated with fibronectin diluted 40-fold with serum-free DMEM/F12 medium (Invitrogen), at room temperature for 3 hr or longer. (indicated as “fibronectin” in FIG. 7) Human iPS cells dispersed in a medium were seeded at a density of 15×10^4 cells per one 100 mm dish coated with BD Matrigel (Nippon Becton Dickinson Company, Ltd.), and cultured at 37° C., 5% CO2 for 1 day. The 100 mm dish used was one coated with BD Matrigel diluted 40-fold with serum-free DMEM/F12 medium (Invitrogen), at room temperature for 3 hr or longer. (indicated as “Matrigel” in FIG. 7) As a medium for dispersion and seeding was a medium for primate ES cell (ReproCELL Inc.) added with 10 μM Y-27632 (Wako Pure Chemical Industries, Ltd.). One day after seeding, the medium was exchanged with DMEM/F12 medium containing a GSK3β inhibitor CHIR99021 (3 μM) and 2% B-27 supplement (GIBCO) and cultured for 2 days. Then the medium was exchanged with DMEM/F12 medium containing activin A (50 ng/ml) and CHIR99021 (1 μM) and cultured for 2 days.

| Compound | expression level of SOX17 (relative to GAPDH) (human iPS cells [1]) | time-course variation in the expression of differentiation markers (SOX17, PDX1, NGN3, insulin), compared between substrates (human iPS cells [2]) |
| --- | --- | --- |
| Cc1c[nH]c(-c2cnc(NCCNc3ccc(C#N)cn3)nc2-c2ccc(Cl)cc2Cl)n1 [CHIR99021, 6-[[2-[[4-(2,4-dichlorophenyl)-5-(4-methyl-1H-imidazol-2-yl)-2-pyrimidinyl]amino]ethyl]amino]nicotinonitrile] | remarkably increased; also recorded: increased over time | – |
| fibronectin | – | almost the same |
| O=C1Nc2cc(Br)ccc2/C1=C1/Nc2ccccc2/C1=N\O [BIO, (2′Z,3′E)-6-bromoindirubin-3′-oxime] | remarkably increased; also recorded: increased over time | – |
